One data set is described as follows: solubility in water. In kind it is physicochemical.
For data set [1] the following is noted: immediate-release tablet, cited from earlier work.

Structures are written as SMILES. Where a name gives a salt, the structure may show the parent alone.

`COc1cc2nc(N(C)CCCNC(=O)C3CCCO3)nc(N)c2cc1OC` (racemic) [alfuzosin hydrochloride, (R,S)-N-(3-(4-amino-6,7-dimethoxy-2-quinazolinyl)methylamino) propyl) tetrahydro-2-furancarboxamide hydrochloride]: in the data set “solubility in water”, the solubility in water result is “freely soluble in water”. In data set [1], the “Peak plasma concentrations reached after administration (time)” value is no more than 1 h and the “inter-individual fluctuations in plasma concentrations” value is listed as “sevenfold”. The Terminal elimination half-life entry in data set [1] (range printed (1-10 h)) is on record as “approximately 5 h”. Besides, the Bioavailability in data set [1] (range printed (45-90%)) is 64%.

(Values after patent US20060062846A1, “Alfuzosin tablets and synthesis” (Cimex Pharma AG, priority 2004, published 2006).)
